Assay results reported in publication PMC12584836, “Rubus caesius leaves and stems in antiaging skin care products: antityrosinase, anticollagenase, antimicrobial activity, and transdermal distribution of main phenolic acids” (Pharmaceutical Biology, 2025).
Marks after values point to notes of the source that are not given here. Each block holds one compound with its values, some of them ahead of it.

Tests used:
[1] = Molybdenum reduction (phosphomolybdenum) assay; type: biochemical
Protocol: (§1) Water and ethanol extracts from Rubus caesius leaves and stems were freshly prepared by dissolving the dry extract in water. The samples were tested at concentrations ranging from 1 to 1000 µg/mL. Ascorbic acid was used as the reference standard in both assays. All measurements were performed using a 96-well microplate reader (Epoch, BioTek System, Winooski, VT, USA). IC50 values for each extract were calculated using the GraphPad Prism 9 software (version 9.0.0, GraphPad Software, San Diego, CA, USA). Each test was performed in triplicate and repeated three times (n = 9).
The total reducing power of water and ethanol extracts from Rubus caesius was estimated according to the phosphomolybdenum method described by Prieto et al. ([1999]), with modifications by Hering et al. ([2025]). The samples (extract or standard) were mixed with the reagent solution and incubated at 90 °C for 90 min. After cooling, 250 µL of each reaction mixture was transferred to a 96-well microplate reader (Epoch, BioTek System, Winooski, VT, USA), and absorbance was measured at 700 nm. The negative control consisted of the reaction mixture and water.

[2] = ABTS radical scavenging assay; type: biochemical
Protocol: as §1
The antioxidant activity of the Rubus caesius extracts was determined using ABTS radical scavenging method as described by Thring et al. ([2009]), with minor modifications according to Hering et al. ([2025]). The reaction mixture containing extracts or standard were incubated in the dark for 20 min at 30 °C. After incubation, absorbance was measured at 750 nm. The negative control sample consisted of the reaction mixture and water instead of extract or standard.

[3] = Skin permeation from hydrogels in Franz diffusion cells; type: in vitro ADME; conditions: porcine skin
Protocol: Permeation experiments were conducted using Franz diffusion cells (Phoenix DB-6, ABL&E-JASCO, Wien, Austria), with a donor chamber area of 1 cm^2 and 10 mL acceptor chamber filled with phosphate-buffered saline (PBS, pH 7.4). The system was maintained at 37.0 ± 0.5 °C, and the acceptor solutions were continuously stirred.
Skin samples were wrapped in aluminum foil, frozen at −20 °C for no longer than three months. […] Skin impedance was measured by immersing the probe tips in the donor and acceptor chambers filled with PBS.
One gram of each hydrogel was applied to the donor chamber. All chambers were sealed with plastic stoppers to minimize evaporation. […] Phenolic acid concentrations were determined by HPLC.
J-shaped profiles and the following equations were used: (1) A=JSS(t−LT) where A is the cumulative amount permeated (μg·cm^−2) of tested phenolic acids permeating into the receptor compartment; JSS is the steady-state flux (μg·cm^−2·h^−1); t is the time (h), and LT is the lag time (h).
The steady-state flux was estimated from the slope of the linear portion of the plot of cumulative mass in the acceptor phase over time. The lag time (LT) was determined from the x-intercept of the linear portion of the plot of cumulative mass in the acceptor phase over time and was used to calculate the […] (KP) as follows: (2) KP=JSS/C where C is the concentration in the donor phase.

[4] = Skin accumulation after 24 h permeation; type: in vitro ADME; conditions: after 24-h penetration; HL-E application; porcine skin
Protocol: Following incubation, samples were homogenized (IKA®T18 digital ULTRA TURRAX, Germany) for 3 min and centrifuged at 3500 rpm for 5 min. The resulting supernatants were analyzed by HPLC spectrophotometry, with methanol used as a blank. Accumulated phenolic acids were expressed as amount (µg) per gram of skin tissue (µg·g skin^−1).

[5] = biological target: Collagenase from Clostridium histolyticum; assay: Collagenase inhibition assay (FALGPA substrate); type: biochemical
Protocol: Preparation of the extracts and calculation of IC50 values were carried out as described in the Antioxidant tests section. The effect of Rubus caesius extracts on collagenase and tyrosinase activity was estimated using the spectrophotometric method in a 96-well microplate reader (Epoch, BioTek System, Winooski, VT, USA).
The addition of the substrate started the reaction. Changes in absorbance were monitored every 20 s for a total of 20 min. The blank sample contained buffer, substrate, and the appropriate concentration of extract or standard. The negative control sample contained water instead of extract or standard. All tests were performed in triplicate and repeated three times (n = 9).
The effect of Rubus caesius extracts on collagenase activity was assessed based on the method described by Thring et al. ([2009]), with modifications introduced by Hering et al. ([2023]). FALGPA was used as the substrate, and oleanolic acid served as the positive control. Reaction mixtures containing the extract (0–400 µg/mL) were pre-incubated for 15 min. The reaction was initiated by the addition of 0.8 mM FALGPA, and absorbance was continuously measured at 335 nm. The reaction buffer was composed of tricine (50 mM, pH 7.5) with 400 mM NaCl and 10 mM CaCl2.

- Molybdenum reduction IC50 [1]: 78.25 ± 1.25 µg/mL
- ABTS radical scavenging IC50 [2]: 14.77 ± 0.5 µg/mL
SMILES: O=C1O[C@H]([C@@H](O)CO)C(O)=C1O [Ascorbic acid, ascorbic acid]

- Phenolic acids concentration in the acceptor fluid (cumulative mass) ([3]; from hydrogel HL-E, 3 h): 2.58 ± 0.20^a µg/cm^2
- Phenolic acids concentration in the acceptor fluid (cumulative mass) ([3]; from hydrogel HL-E, 5 h): 2.84 ± 0.07^a µg/cm^2
- Phenolic acids concentration in the acceptor fluid (cumulative mass) ([3]; from hydrogel HL-E, 8 h): 3.30 ± 0.13^a µg/cm^2
- Phenolic acids concentration in the acceptor fluid (cumulative mass) ([3]; from hydrogel HL-E, 24 h): 7.83 ± 0.83^a µg/cm^2
- D·10^4, diffusion coefficient ([3]; from hydrogel HL-E): 3.41 ± 0.28 cm^2/h
- JSS, steady-state flux ([3]; from hydrogel HL-E): 0.84 ± 0.02 µg/cm^2·h
- LT, lag time ([3]; from hydrogel HL-E): 1.22 ± 0.09 h
- Q%24h, percentage of applied dose in acceptor phase after 24 h ([3]; from hydrogel HL-E): 0.68 ± 0.07%
- Phenolic acids concentration in the acceptor fluid (cumulative mass) ([3]; from hydrogel HS-E, 24 h): not permeating at all
SMILES: O=C(O)/C=C/c1ccc(O)c(O)c1 [Caffeic acid, caffeic acid]

SMILES: O=C(O)/C=C/c1ccc(O)cc1 [Coumaric acid, coumaric acid]
- Phenolic acids concentration in the acceptor fluid (cumulative mass) ([3]; from hydrogel HL-E, 3 h): 4.97 ± 0.09^a µg/cm^2
- Phenolic acids concentration in the acceptor fluid (cumulative mass) ([3]; from hydrogel HL-E, 5 h): 7.04 ± 0.75^a µg/cm^2
- Phenolic acids concentration in the acceptor fluid (cumulative mass) ([3]; from hydrogel HL-E, 8 h): 8.95 ± 1.00^a µg/cm^2
- Phenolic acids concentration in the acceptor fluid (cumulative mass) ([3]; from hydrogel HL-E, 24 h): 12.45 ± 0.26^a µg/cm^2
- D·10^4, diffusion coefficient ([3]; from hydrogel HL-E): 9.27 ± 0.73 cm^2/h
- JSS, steady-state flux ([3]; from hydrogel HL-E): 1.35 ± 0.17 µg/cm^2·h
- Q%24h, percentage of applied dose in acceptor phase after 24 h ([3]; from hydrogel HL-E): 2.62 ± 0.05%
- Phenolic acids concentration in the acceptor fluid (cumulative mass) ([3]; from hydrogel HS-E, 8 h): 5.10 ± 0.11^b µg/cm^2
- Phenolic acids concentration in the acceptor fluid (cumulative mass) ([3]; from hydrogel HS-E, 24 h): 5.93 ± 0.08^b µg/cm^2
- Q%24h, percentage of applied dose in acceptor phase after 24 h ([3]; from hydrogel HS-E): 5.37 ± 0.07%

SMILES: O=C(O)c1cc(O)c(O)c(O)c1 [Gallic acid, gallic acid]
- Accumulation of phenolic acid in the skin [4]: 70.62 ± 4.06 µg/g skin
- Phenolic acids concentration in the acceptor fluid (cumulative mass) ([3]; from hydrogel HL-E, 1 h): 3.64 ± 0.12^a µg/cm^2
- Phenolic acids concentration in the acceptor fluid (cumulative mass) ([3]; from hydrogel HL-E, 2 h): 4.54 ± 0.47^a µg/cm^2
- Phenolic acids concentration in the acceptor fluid (cumulative mass) ([3]; from hydrogel HL-E, 3 h): 6.18 ± 0.35^a µg/cm^2
- Phenolic acids concentration in the acceptor fluid (cumulative mass) ([3]; from hydrogel HL-E, 5 h): 10.24 ± 0.97^a µg/cm^2
- Phenolic acids concentration in the acceptor fluid (cumulative mass) ([3]; from hydrogel HL-E, 8 h): 16.09 ± 1.19^a µg/cm^2
- Phenolic acids concentration in the acceptor fluid (cumulative mass) ([3]; from hydrogel HL-E, 24 h): 49.62 ± 2.18^a µg/cm^2
- Phenolic acids concentration in the acceptor fluid (cumulative mass) ([3]; from hydrogel HL-E, 24 h, listed as gallic acid): 49.62 ± 2.18 µg/cm^2
- D·10^4, diffusion coefficient ([3]; from hydrogel HL-E): 25.73 ± 1.64 cm^2/h
- JSS, steady-state flux ([3]; from hydrogel HL-E): 2.08 ± 0.08 µg/cm^2·h
- LT, lag time ([3]; from hydrogel HL-E): 0.16 ± 0.02 h
- Q%24h, percentage of applied dose in acceptor phase after 24 h ([3]; from hydrogel HL-E): 5.78 ± 0.25%
- Q%24h, percentage of applied dose in acceptor phase after 24 h ([3]; from hydrogel HL-E, listed as gallic acid): 5.78%
- Phenolic acids concentration in the acceptor fluid (cumulative mass) ([3]; from hydrogel HS-E, 5 h): 3.95 ± 0.18^b µg/cm^2
- Phenolic acids concentration in the acceptor fluid (cumulative mass) ([3]; from hydrogel HS-E, 8 h): 4.69 ± 0.19^b µg/cm^2
- Phenolic acids concentration in the acceptor fluid (cumulative mass) ([3]; from hydrogel HS-E, 24 h): 7.19 ± 0.47^b µg/cm^2
- D·10^4, diffusion coefficient ([3]; from hydrogel HS-E): 2.01 ± 0.09 cm^2/h
- JSS, steady-state flux ([3]; from hydrogel HS-E): 0.88 ± 0.04 µg/cm^2·h
- LT, lag time ([3]; from hydrogel HS-E): 2.08 ± 0.09 h
- Q%24h, percentage of applied dose in acceptor phase after 24 h ([3]; from hydrogel HS-E): 4.78 ± 0.35%

SMILES: O=C(O)c1ccc(O)c(O)c1 [Protocatechuic acid, protocatechuic acid]
- Accumulation of phenolic acid in the skin [4]: 61.46 ± 12.57 µg/g skin
- Phenolic acids concentration in the acceptor fluid (cumulative mass) ([3]; from hydrogel HL-E, 2 h): 3.28 ± 0.31^a µg/cm^2
- Phenolic acids concentration in the acceptor fluid (cumulative mass) ([3]; from hydrogel HL-E, 3 h): 5.86 ± 0.28^a µg/cm^2
- Phenolic acids concentration in the acceptor fluid (cumulative mass) ([3]; from hydrogel HL-E, 5 h): 8.59 ± 0.65^a µg/cm^2
- Phenolic acids concentration in the acceptor fluid (cumulative mass) ([3]; from hydrogel HL-E, 8 h): 11.94 ± 1.91^a µg/cm^2
- Phenolic acids concentration in the acceptor fluid (cumulative mass) ([3]; from hydrogel HL-E, 24 h): 37.95 ± 2.96^a µg/cm^2
- Phenolic acids concentration in the acceptor fluid (cumulative mass) ([3]; from hydrogel HL-E, 24 h, listed as protocatechuic acid): 37.95 ± 2.96 µg/cm^2
- D·10^4, diffusion coefficient ([3]; from hydrogel HL-E): 6.57 ± 0.77 cm^2/h
- JSS, steady-state flux ([3]; from hydrogel HL-E): 2.10 ± 0.17 µg/cm^2·h
- LT, lag time ([3]; from hydrogel HL-E): 0.63 ± 0.08 h
- Q%24h, percentage of applied dose in acceptor phase after 24 h ([3]; from hydrogel HL-E): 4.49 ± 0.35%
- Q%24h, percentage of applied dose in acceptor phase after 24 h ([3]; from hydrogel HL-E, listed as protocatechuic acid): 4.49%
- Phenolic acids concentration in the acceptor fluid (cumulative mass) ([3]; from hydrogel HS-E, 5 h): 3.04 ± 0.03^a µg/cm^2
- Phenolic acids concentration in the acceptor fluid (cumulative mass) ([3]; from hydrogel HS-E, 8 h): 3.84 ± 0.18^b µg/cm^2
- Phenolic acids concentration in the acceptor fluid (cumulative mass) ([3]; from hydrogel HS-E, 24 h): 4.57 ± 0.30^b µg/cm^2
- D·10^4, diffusion coefficient ([3]; from hydrogel HS-E): 1.91 ± 0.09 cm^2/h
- JSS, steady-state flux ([3]; from hydrogel HS-E): 0.73 ± 0.04 µg/cm^2·h
- LT, lag time ([3]; from hydrogel HS-E): 2.19 ± 0.10 h
- Q%24h, percentage of applied dose in acceptor phase after 24 h ([3]; from hydrogel HS-E): 2.45 ± 0.16%

SMILES: COc1cc(C(=O)O)ccc1O [Vanillic acid, vanillic acid]
- Phenolic acids concentration in the acceptor fluid (cumulative mass) ([3]; from hydrogel HL-E, 3 h): 0.49 ± 0.25^a µg/cm^2
- Phenolic acids concentration in the acceptor fluid (cumulative mass) ([3]; from hydrogel HL-E, 5 h): 1.76 ± 0.82^a µg/cm^2
- Phenolic acids concentration in the acceptor fluid (cumulative mass) ([3]; from hydrogel HL-E, 8 h): 3.92 ± 1.06^a µg/cm^2
- Phenolic acids concentration in the acceptor fluid (cumulative mass) ([3]; from hydrogel HL-E, 24 h): 15.61 ± 2.42^a µg/cm^2
- D·10^4, diffusion coefficient ([3]; from hydrogel HL-E): 2.68 ± 0.19 cm^2/h
- JSS, steady-state flux ([3]; from hydrogel HL-E): 0.54 ± 0.03 µg/cm^2·h
- LT, lag time ([3]; from hydrogel HL-E): 1.55 ± 0.13 h
- Q%24h, percentage of applied dose in acceptor phase after 24 h ([3]; from hydrogel HL-E): 4.77 ± 0.29%
- Q%24h, percentage of applied dose in acceptor phase after 24 h ([3]; from hydrogel HL-E, listed as vanillic acid): 4.77%
- Phenolic acids concentration in the acceptor fluid (cumulative mass) ([3]; from hydrogel HS-E, 24 h): 0.95 ± 0.15^b µg/cm^2
- Q%24h, percentage of applied dose in acceptor phase after 24 h ([3]; from hydrogel HS-E): 3.28 ± 0.52%

SMILES: CC1(C)CC[C@]2(C(=O)O)CC[C@]3(C)C(=CC[C@@H]4[C@@]5(C)CC[C@H](O)C(C)(C)[C@@H]5CC[C@]43C)[C@@H]2C1 [oleanolic acid]
- IC50 of collagenase inhibition [5]: 31.72 ± 0.65 µg/mL
